The record followed here is patent US9120781B2, “Selective glycosidase inhibitors and uses thereof” (Simon Fraser University, priority 2010, dated 2015).

Sequence of human O-GlcNAcase (O60502 whole entry): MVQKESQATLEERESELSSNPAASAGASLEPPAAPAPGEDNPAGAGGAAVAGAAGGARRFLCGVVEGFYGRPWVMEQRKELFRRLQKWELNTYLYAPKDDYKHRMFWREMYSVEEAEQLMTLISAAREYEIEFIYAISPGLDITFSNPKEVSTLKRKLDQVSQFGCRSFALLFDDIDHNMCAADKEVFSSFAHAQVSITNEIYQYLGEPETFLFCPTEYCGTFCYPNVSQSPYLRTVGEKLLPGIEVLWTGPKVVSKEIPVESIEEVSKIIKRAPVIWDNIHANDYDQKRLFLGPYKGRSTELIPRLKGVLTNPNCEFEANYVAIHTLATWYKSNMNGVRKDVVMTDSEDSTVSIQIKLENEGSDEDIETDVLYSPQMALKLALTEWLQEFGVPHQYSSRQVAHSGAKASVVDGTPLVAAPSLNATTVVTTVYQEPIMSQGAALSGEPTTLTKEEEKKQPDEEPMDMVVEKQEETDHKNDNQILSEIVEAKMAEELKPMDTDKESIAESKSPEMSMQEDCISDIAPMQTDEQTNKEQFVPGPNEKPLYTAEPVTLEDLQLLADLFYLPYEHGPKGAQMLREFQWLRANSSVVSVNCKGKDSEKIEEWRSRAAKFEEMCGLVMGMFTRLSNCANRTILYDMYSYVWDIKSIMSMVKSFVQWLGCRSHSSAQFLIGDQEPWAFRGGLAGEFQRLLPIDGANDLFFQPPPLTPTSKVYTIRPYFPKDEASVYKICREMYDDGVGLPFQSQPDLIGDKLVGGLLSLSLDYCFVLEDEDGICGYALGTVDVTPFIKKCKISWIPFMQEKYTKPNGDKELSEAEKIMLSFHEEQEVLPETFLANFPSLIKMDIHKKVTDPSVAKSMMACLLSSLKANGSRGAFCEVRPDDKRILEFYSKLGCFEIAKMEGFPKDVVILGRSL

This test addresses human O-GlcNAcase (Homo sapiens (Human), UniProt O60502). Put plainly: Assay for determination of KI values for inhibition of O-GlcNAcase activity (fluorescence-based hOGA). The test is classed as biochemical. The following applies: purified human O-GlcNAcase, 4-Methylumbelliferyl N-acetyl-β-D-glucosaminide substrate, pH 7.0, Cheng-Prusoff. The protocol: Assay for Determination of KI Values for Inhibition of O-GlcNAcase Activity
Experimental Procedure for Kinetic Analyses:
Enzymatic reactions are carried out in a reaction containing 50 mM NaH2PO4, 100 mM NaCl and 0.1% BSA (pH 7.0) using 2 mM 4-Methylumbelliferyl N-acetyl-β-D-glucosaminide dihydrate (Sigma M2133) dissolved in ddH2O, as a substrate. The amount of purified human O-GlcNAcase enzyme used in the reaction is 0.7 nM. Test compound of varying concentrations is added to the enzyme prior to initiation of the reaction. The reaction is performed at room temperature in a 96-well plate and is initiated with the addition of substrate. The production of fluorescent product is measured every 60 sec for 45 min with a Tecan Infinite M200 plate-reader with excitation at 355 nm and emission detected at […], with 4-Methylumbelliferone (Sigma M1381) used to produce a standard curve. The slope of product production is determined for each concentration of compound tested and plotted, using standard curve fitting algorithms for sigmoidal dose response curves. The values for a four parameter logistic curve fit of the data are determined.
`OC[C@H]1C[C@@H]2OC(NCCF)=N[C@@H]2[C@@H](O)[C@@H]1O` [Example 32, (3aR,4R,5R,6R,7aS)-2-((2-fluoroethyl)amino)-6-(hydroxymethyl)-3a,4,5,6,7,7a-hexahydrobenzo[d]oxazole-4,5-diol 2,2,2-trifluoroacetate] came in with an inhibition constant Ki of 2.5 nM.

Turning to `CN(C)C1=N[C@@H]2[C@@H](O)[C@H](O)[C@@H](CO)C[C@@H]2S1` [Example 22, (3aR,4R,5R,6R,7aS)-2-(dimethylamino)-6-(hydroxymethyl)-3a,4,5,6,7,7a-hexahydrobenzo[d]thiazole-4,5-diol], the inhibitory constant (Ki) is 0.5 nM.

Turning to `OC[C@H]1C[C@@H]2OC(N3CCC3)=N[C@@H]2[C@@H](O)[C@@H]1O` [Example 18, (3aR,4R,5R,6R,7aS)-2-(azetidin-1-yl)-6-(hydroxymethyl)-3a,4,5,6,7,7a-hexahydrobenzo[d]oxazole-4,5-diol], the affinity corresponds to a Ki of 0.13 nM.

`CCNC1=N[C@@H]2[C@@H](O)[C@H](O)[C@@H](CO)C[C@@H]2O1` [Example 9, (3aR,4R,5R,6R,7aS)-2-(ethylamino)-6-(hydroxymethyl)-3a,4,5,6,7,7a-hexahydrobenzo[d]oxazole-4,5-diol] came in with a Ki of 0.6 nM.

`CNC1=N[C@@H]2[C@@H](O)[C@H](O)[C@@H](CO)C[C@@H]2S1` [Example 26, (3aR,4R,5R,6R,7aS)-2-(methylamino)-6-(hydroxymethyl)-3a,4,5,6,7,7a-hexahydrobenzo[d]thiazole-4,5-diol] had a Ki of 0.2 nM.

Take `CN(C)C1=N[C@H]2[C@H](O)[C@@H](O)[C@H](CO)C[C@H]2S1` [Example 23, (3aS,4S,5S,6S,7aR)-2-(dimethylamino)-6-(hydroxymethyl)-3a,4,5,6,7,7a-hexahydrobenzo[d]thiazole-4,5-diol]: the Ki stood at 484 nM.
